# Reference: patent US9487489B2, “Halogen-substituted pyrazole derivatives as pest-control agents” (BAYER CROPSCIENCE AKTIENGESELLSCHAFT, priority 2013, dated 2016)
# How the values were obtained:
# [1] = logP determination by HPLC on a reversed-phase column (C18), EEC Directive 79/831 Annex V.A8; type: physicochemical
# Protocol: (§1) ^a) Note regarding the determination of the logP values and mass detection: The determination of the given logP values was carried out in accordance with EEC Directive 79/831 Annex V.A8 by HPLC (High Performance Liquid Chromatography) on a reversed-phase column (C18). Agilent 1100 LC system; 50*4.6 Zorbax Eclipse Plus C18 1.8 micron; mobile phase A: acetonitrile (0.1% formic acid); mobile phase B: water (0.09% formic acid); linear gradient from 10% acetonitrile to 95% acetonitrile in 4.25 min, then 95% acetonitrile for a further 1.25 min; oven temperature 55° C.; flow rate: 2.0 ml/min. Mass detection is carried out via an Agilend MSD system.
# as §1, with “^*)” for “^a)”
# [2] = test system: larvae of the mustard beetle (Phaedon cochleariae); assay: Phaedon cochleariae spray test (PHAECO); type: in vivo; conditions: Chinese cabbage leaf discs, after 7 days
# Protocol: H. Phaedon cochleariae-spray Test (PHAECO)
# Solvents: 78.0 parts by weight of acetone
# • 1.5 parts by weight of dimethylformamide Emulsifier: alkylaryl polyglycol ether
# To produce a suitable preparation of active compound, 1 part by weight of active compound is dissolved using the stated parts by weight of solvent and made up with water comprising an emulsifier concentration of 1000 ppm until the desired concentration is reached. To produce further test concentrations, the preparation is diluted with emulsifier-containing water.
# After 7 days, the efficacy in % is determined. 100% means that all of the beetle larvae have been killed; 0% means that none of the beetle larvae have been killed.
# [3] = test system: adult cat fleas (Ctenocephalides felis); assay: Ctenocephalides felis in vitro contact test with adult cat fleas (T1); conditions: after 48 h
# Protocol: T1. Ctenocephalides felis—in vitro Contact Tests with Adult Cat Fleas
# For the coating of the test tubes, initially 9 mg of active compound are dissolved in 1 ml of acetone p.a. and then diluted with acetone p.a. to the desired concentration. By turning and rocking on an orbital shaker (2 h of rocking rotation at 30 rpm), 250 μl of the solution are distributed homogeneously on the internal walls and the floor of a 25 ml test tube. At 900 ppm active compound solution and 44.7 cm^2 internal surface, an area dose of 5 μg/cm^2 is achieved for homogeneous distribution.
# After evaporation of the solvent, the tubes are populated with 5-10 adult cat fleas (Ctenocephalides felis), sealed with a perforated plastic lid and incubated in a horizontal position at room temperature and ambient humidity. After 48 h, the efficacy is determined. To this end, the test tubes are stood upright and the fleas are knocked to the floor of the tube. Fleas which remain motionless on the floor or move in an uncoordinated manner are considered to be dead or moribund.
# An efficacy of 100% means that all fleas were dead or moribund. 0% efficacy means that none of the fleas had been damaged.
# [4] = HPLC, reversed-phase C18, acetonitrile (0.1% formic acid)/water (0.09% formic acid) gradient
# [5] = HPLC on reversed-phase column (C18), acetonitrile/water with formic acid, EEC Directive 79/831 Annex V.A8
compound,measurement,setting,value
Cn1nc(C(F)(F)C(F)(F)F)c(C(F)(F)F)c1-n1cnc(-c2cccc(C(=O)NC3(C#N)CC3)c2)n1 [Ie-7],logP,[1]; [4],3.46
CCCN(C(=O)c1cc(-c2cnn(-c3c(C(F)(F)F)c(C(F)(F)C(F)(F)F)nn3C)c2)ccc1Cl)C1(C#N)CC1 [Ic-204],logP,[1]; [5],4.56
Cn1nc(C(F)(F)C(F)(F)F)c(C(F)(F)F)c1-n1cc(-c2cncc(C(=O)NC3CC3)n2)cn1 [Ic-178],efficacy in %,[2]; application rate 100 g/ha,100%
Cn1nc(C(F)(F)C(F)(F)F)c(C(F)(F)F)c1-n1cc(-c2ccc(Cl)c(C(=O)Nc3nn[nH]n3)c2)cn1 [Ic-144],efficacy (dead or moribund fleas),[3]; application rate 1 μg/cm^2,100%
same,efficacy (dead or moribund fleas),[3]; application rate 5 μg/cm^2,100%
Cn1nc(C(F)(F)F)c(CCl)c1-n1cc(-c2ccc(Cl)c(C(=O)NC3CC3)c2)cn1 [Ic-114],logP,[1]; [5],3.12
Cn1nc(C(F)(F)C(F)(F)F)c(C(F)(F)F)c1-n1cc(-c2ccc(C(F)(F)F)c(C(=O)NC3CC3)c2)cn1 [Ic-196],logP,[1]; [5],3.96
CN(C)CCNC(=O)c1cc(-c2cnn(-c3c(C(F)(F)F)c(C(F)(F)C(F)(F)F)nn3C)c2)ccc1Cl [Ic-138],efficacy (dead or moribund fleas),[3]; application rate 5 μg/cm^2,80%
Cn1nc(C(F)(F)C(F)(F)F)c(C(F)(F)F)c1-n1cc(-c2ccc(Cl)c(C(=O)NC3(C4CCC4)CC3)c2)cn1 [Ic-210],logP,[1]; [5],4.77
Cn1nc(C(F)(F)C(F)(F)F)c(C(F)(F)F)c1-n1cc(-c2cncc(C(=O)NC3(C#N)CC3)n2)cn1 [Ic-179],efficacy in %,[2]; application rate 500 g/ha,100%
Cn1nc(C(F)(F)C(F)(F)F)c(C(F)(F)F)c1-n1cc(-c2cc(C(=O)NC3(C#N)CC3)c(Cl)cc2F)cn1 [Ic-93],efficacy in %,[2]; application rate 500 g/ha,100%
"Cn1nc(C(F)(F)C(F)(F)F)c(C(F)(F)F)c1-n1cnc(-c2ccc(Cl)c(C(=O)NCc3ccccc3)c2)c1 [Ib-1, N-Benzyl-2-chloro-5-{1-[1-methyl-3-(pentafluoroethyl)-4-(trifluoromethyl)-1H-pyrazol-5-yl]-1H-imidazol-4-yl}benzamide]",efficacy in %,[2]; application rate 100 g/ha,83%
same,chromatographic logP,[1],4
Cn1nc(C(F)(F)F)c(C(=O)NC2CC2)c1-n1cc(-c2ccc(Cl)c(C(=O)NC3CC3)c2)cn1 [Ic-100],logP,[1]; [5],2.31
CON=Cc1c(C(F)(F)F)nn(C)c1-n1cc(-c2ccc(Cl)c(C(=O)NC3CC3)c2)cn1 (mixture of isomers) [Ic-51],efficacy in %,[2]; application rate 500 g/ha,100%
same,logP,[1]; [5],3.15
Cn1nc(C(F)(F)C(F)(F)F)c(C(F)(F)F)c1-n1cnc(-c2cccc(C(=O)NC3(C(N)=S)CC3)c2)n1 [Ie-6],logP,[1]; [4],3.29
CCN(C(=O)c1cc(-c2cnn(-c3c(C(F)(F)F)c(C(F)(F)C(F)(F)F)nn3C)c2)ccc1Cl)C1(C#N)CC1 [Ic-208],logP,[1]; [5],4.33
Cn1nc(C(F)(F)F)c(C#N)c1-n1cc(-c2ccc(Cl)c(C(=O)NC3CC3)c2)cn1 [Ic-30],efficacy in %,[2]; application rate 100 g/ha,100%
same,logP,[1]; [5],2.97
CSc1c(C(F)(F)C(F)(F)F)nn(C)c1-n1cc(-c2ccc(Cl)c(C(=O)NC3(C#N)CC3)c2)cn1 [Ic-194],logP,[1]; [5],3.56
Cn1nc(C(F)(F)C(F)(F)F)c(C(F)(F)F)c1-n1cnc(-c2cccc(C(=O)NC3CC3)c2)n1 [Ie-3],logP,[1]; [4],3.50
Cc1c(-c2ccc(Cl)c(C(=O)NC3CC3)c2)c(C(F)(F)F)nn1-c1c(C(F)(F)F)c(C(F)(F)C(F)(F)F)nn1C [Ic-5],efficacy in %,[2]; application rate 100 g/ha,83%
same,logP,[1]; [5],4.60
Cn1nc(C(F)(F)F)c(C(=O)NC2CC2)c1-n1cc(-c2ccc(Cl)c(C(=O)NC3(C#N)CC3)c2)cn1 [Ic-101],logP,[1]; [5],2.32
CCC(=O)N(C(=O)c1cc(-c2cnn(-c3c(C(F)(F)F)c(C(F)(F)C(F)(F)F)nn3C)c2)ccc1Cl)C1(C#N)CC1 [Ic-205],logP,[1]; [5],4.63
Cn1nc(C(F)(F)F)c(C=O)c1-n1cc(-c2ccc(Cl)c(C(=O)NC3(C#N)CC3)c2)cn1 [Ic-102],logP,[1]; [5],2.61
Cn1nc(C(F)(F)F)c(C=NO)c1-n1cc(-c2ccc(Cl)c(C(=O)NC3(C#N)CC3)c2)cn1 (mixture of isomers) [Ic-98],logP,[1]; [5],2.42
Cn1nc(C(F)(F)C(F)(F)F)c(C(F)(F)F)c1-n1cnc(-c2cccc(C(=O)Nc3ccc(Cl)nc3)c2)n1 [Ie-5],efficacy in %,[2]; application rate 100 g/ha,100%
same,logP,[1]; [4],4.24
Cn1nc(C(F)(F)F)c(C=NO)c1-n1cc(-c2ccc(Cl)c(C(=O)NC3CC3)c2)cn1 (mixture of isomers) [Ic-50],logP,[1]; [5],2.47
C=CCN(C(=O)c1cc(-c2cnn(-c3c(C(F)(F)F)c(C(F)(F)C(F)(F)F)nn3C)c2)ccc1Cl)C1(C#N)CC1 [Ic-206],logP,[1]; [5],4.44
CN(C(=O)c1cc(-c2cnn(-c3c(C(F)(F)F)c(C(F)(F)C(F)(F)F)nn3C)c2)ccc1Cl)C1CC1 [Ic-199],efficacy (dead or moribund fleas),[3]; application rate 1 μg/cm^2,100%
same,efficacy (dead or moribund fleas),[3]; application rate 5 μg/cm^2,100%
Cn1nc(C(F)(F)C(F)(F)F)c(C(F)(F)F)c1-n1cnc(-c2ccc(Cl)c(C(=O)NC3CC3)c2)n1 [Ie-2],logP,[1]; [4],3.72
CC(NC(=O)c1cc(-c2cnn(-c3c(C(F)(F)F)c(C(F)(F)C(F)(F)F)nn3C)c2)ccc1Cl)C1CC1 (stereo not drawn) [Ic-207],logP,[1]; [5],4.4
Cn1nc(C(F)(F)C(F)(F)F)c(C(F)(F)F)c1-n1cc(-c2ccc(C(F)(F)F)c(C(=O)NC3(C#N)CC3)c2)cn1 [Ic-203],logP,[1]; [5],3.88
CCN(C(=O)c1cc(-c2cnn(-c3c(C(F)(F)F)c(C(F)(F)C(F)(F)F)nn3C)c2)ccc1Cl)C1CC1 [Ic-211],efficacy (dead or moribund fleas),[3]; application rate 1 μg/cm^2,100%
same,efficacy (dead or moribund fleas),[3]; application rate 5 μg/cm^2,100%
Cn1nc(C(F)(F)C(F)(F)F)c(C(F)(F)F)c1-n1cc(-c2ccc(Cl)c(C(=O)Nc3ccon3)c2)cn1 [Ic-145],efficacy (dead or moribund fleas),[3]; application rate 1 μg/cm^2,100%
same,efficacy (dead or moribund fleas),[3]; application rate 5 μg/cm^2,100%
Cn1nc(C(F)(F)C(F)(F)F)c(C(F)(F)F)c1-n1cc(-c2cc(C(=O)NC3CC3)c(F)c(S(N)(=O)=O)c2)cn1 [Ic-173],efficacy in %,[2]; application rate 500 g/ha,100%
CCN(CC)C(=O)c1cc(-c2cnn(-c3c(C(F)(F)F)c(C(F)(F)C(F)(F)F)nn3C)c2)ccc1S(=O)(=O)NC1CC1 [Ic-197],logP,[1]; [5],4.39
Cn1nc(C(F)(F)C(F)(F)F)c(C(F)(F)F)c1-n1cnc(-c2cccc(C(=O)NCc3cccs3)c2)n1 [Ie-4],efficacy in %,[2]; application rate 100 g/ha,100%
same,logP,[1]; [4],4.05
Cn1nc(C(F)(F)C(F)(F)F)c(C(F)(F)F)c1-n1cc(-c2ccc(Cl)c(C(=O)NC3CC3)c2)c(N)n1 [Ic-192],efficacy in %,[2]; application rate 100 g/ha,100%
same,logP,[1]; [5],3.35
Cn1nc(C(F)(F)F)c(C=O)c1-n1cc(-c2ccc(Cl)c(C(=O)NC3CC3)c2)cn1 [Ic-52],efficacy in %,[2]; application rate 500 g/ha,100%
same,logP,[1]; [5],2.67
Cn1nc(C(F)(F)C(F)(F)F)c(C(F)(F)F)c1-n1cc(-c2ccc(Cl)c(C(=O)NC3(C#N)CC3)c2)c(N)n1 [Ic-191],efficacy in %,[2]; application rate 100 g/ha,100%
same,logP,[1]; [5],3.3
Cn1nc(C(F)(F)C(F)(F)F)c(C(F)(F)F)c1-n1cc(-c2ccc(Cl)c(C(=O)Nc3ccc(F)cc3)c2)cn1 [Ic-209],logP,[1]; [5],4.53
Cn1nc(C(F)(F)C(F)(F)F)c(C(F)(F)F)c1-n1cc(-c2ccc(Cl)c(C(=O)NCc3ncc[nH]3)c2)cn1 [Ic-146],efficacy (dead or moribund fleas),[3]; application rate 1 μg/cm^2,80%
same,efficacy (dead or moribund fleas),[3]; application rate 5 μg/cm^2,80%
